Results as given in patent US20260007667A1, “TOPICAL ECTODERMAL STIMULATION” (SOLIFON PHARMACEUTICALS, INC., priority 2022, published 2026).

Tested on: patients suffering hair loss and numbness due to diabetic neuropathy
Experiment: Repetitive topical application of minoxidil in patients suffering hair loss and numbness due to diabetic neuropathy
Assay type: in vivo
Details: twice a day, approximately 1 mL per day, 2-5% minoxidil
Experimental: In an illustrative test with repetitive topical application of minoxidil as a VGIA 120a in patients suffering hair loss and numbness due to diabetic neuropathy, hair growth, nail growth, and temperature perception (restoration of innervation) was achieved on the leg within 2-3 weeks. The minoxidil was applied twice a day in a quantity of approximately 1 mL per day in a concentration of 2-5% minoxidil.

Nc1cc(N2CCCCC2)nc(N)[n+]1[O-] [minoxidil]
2-3 weeks: hair growth achieved on the leg (time) | temperature perception (restoration of innervation) achieved on the leg (time) | nail growth achieved (time) (leg)
